Measured values published in PubChem BioAssay AID2060508 (Molecular Pharmacology Branch, DTP, NCI, 2025).

System: 454973-116-R2-J3-PDC spheroids, viability, % test/control
Test: Anticancer human tumor 454973-116-R2-J3-PDC patient-derived pancreatic carcinoma cell line growth inhibition [GQUAD]
Conditions: spheroids with HUVEC and MSC; for IC50: curve of first compound; for viability, T/C: stronger effect = lower value
Method in brief: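 Viability of tumor cells grown as complex spheroids with endothelial and stromal cells, exposed to drug combinations. Top concentration at or near clinical Cmax (else 10 microM), diluted in half-log increments.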

[1] = second compound 0.0316 µM, first compound 0.0316 µM
[2] = second compound 0.0316 µM, first compound 0.316 µM
[3] = second compound 0.1 µM, first compound 0.0316 µM
[4] = second compound 0.1 µM, first compound 0.316 µM
[5] = second compound 0.316 µM, first compound 0.0316 µM
[6] = second compound 0.316 µM, first compound 0.316 µM
[7] = second compound 1 µM, first compound 0.0316 µM
[8] = second compound 1 µM, first compound 0.316 µM
[9] = second compound 3.16 µM, first compound 0.0316 µM
[10] = second compound 3.16 µM, first compound 0.316 µM
[11] = second compound 10 µM, first compound 0.0316 µM
[12] = second compound 10 µM, first compound 0.316 µM
[13] = second compound 0.0316 µM, first compound 0.1 µM
[14] = second compound 0.0316 µM, first compound 1 µM
[15] = second compound 0.0316 µM, first compound 3.16 µM
[16] = second compound 0.0316 µM, first compound 10 µM
[17] = second compound 0.1 µM, first compound 0.1 µM
[18] = second compound 0.1 µM, first compound 1 µM
[19] = second compound 0.1 µM, first compound 3.16 µM
[20] = second compound 0.1 µM, first compound 10 µM
[21] = second compound 0.316 µM, first compound 0.1 µM
[22] = second compound 0.316 µM, first compound 1 µM
[23] = second compound 0.316 µM, first compound 3.16 µM
[24] = second compound 0.316 µM, first compound 10 µM
[25] = second compound 1 µM, first compound 0.1 µM
[26] = second compound 1 µM, first compound 1 µM
[27] = second compound 1 µM, first compound 3.16 µM
[28] = second compound 1 µM, first compound 10 µM
[29] = second compound 3.16 µM, first compound 0.1 µM
[30] = second compound 3.16 µM, first compound 1 µM
[31] = second compound 3.16 µM, first compound 3.16 µM
[32] = second compound 3.16 µM, first compound 10 µM
[33] = second compound 10 µM, first compound 0.1 µM
[34] = second compound 10 µM, first compound 1 µM
[35] = second compound 10 µM, first compound 3.16 µM
[36] = second compound 10 µM, first compound 10 µM
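Further: spheroids exposed to compounds for seven days.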
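Wherever viability, T/C is given: 100% = DMSO vehicle control viability.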

SMILES: CCc1c2c(nc3ccc(O)cc13)-c1cc3c(c(=O)n1C2)COC(=O)[C@]3(O)CC + CN(C)c1ccc(Nc2c3ccc(NC(=O)CCN4CCCC4)cc3nc3cc(NC(=O)CCN4CCCC4)ccc23)cc1
- IC50 (second compound 0.0316 µM): 0.00167 µM
- IC50 (second compound 0.1 µM): 0.00171 µM
- IC50 (second compound 0.316 µM): 0.00152 µM
- IC50 (second compound 1 µM): 0.00168 µM
- IC50 (second compound 3.16 µM): 0.00163 µM
- IC50 (second compound 10 µM): 0.00148 µM
- viability, T/C (second compound 0.0316 µM, first compound 0.000999 µM): 67.9%
- viability, T/C (second compound 0.0316 µM, first compound 0.00316 µM): 23.9%
- viability, T/C (second compound 0.0316 µM, first compound 0.00999 µM): 21.6%
- viability, T/C [1]: 15.2%
- viability, T/C (second compound 0.0316 µM, first compound 0.0999 µM): 6.24%
- viability, T/C [2]: 5.45%
- viability, T/C (second compound 0.1 µM, first compound 0.000999 µM): 68.1%
- viability, T/C (second compound 0.1 µM, first compound 0.00316 µM): 25.9%
- viability, T/C (second compound 0.1 µM, first compound 0.00999 µM): 21.8%
- viability, T/C [3]: 14.1%
- viability, T/C (second compound 0.1 µM, first compound 0.0999 µM): 6.39%
- viability, T/C [4]: 4.95%
- viability, T/C (second compound 0.316 µM, first compound 0.000999 µM): 61.4%
- viability, T/C (second compound 0.316 µM, first compound 0.00316 µM): 27.2%
- viability, T/C (second compound 0.316 µM, first compound 0.00999 µM): 22.3%
- viability, T/C [5]: 12.3%
- viability, T/C (second compound 0.316 µM, first compound 0.0999 µM): 7.81%
- viability, T/C [6]: 5.5%
- viability, T/C (second compound 1 µM, first compound 0.000999 µM): 65.6%
- viability, T/C (second compound 1 µM, first compound 0.00316 µM): 27.5%
- viability, T/C (second compound 1 µM, first compound 0.00999 µM): 23.8%
- viability, T/C [7]: 11.9%
- viability, T/C (second compound 1 µM, first compound 0.0999 µM): 8.79%
- viability, T/C [8]: 5.09%
- viability, T/C (second compound 3.16 µM, first compound 0.000999 µM): 62.5%
- viability, T/C (second compound 3.16 µM, first compound 0.00316 µM): 30.7%
- viability, T/C (second compound 3.16 µM, first compound 0.00999 µM): 24.4%
- viability, T/C [9]: 13.8%
- viability, T/C (second compound 3.16 µM, first compound 0.0999 µM): 11.1%
- viability, T/C [10]: 5.7%
- viability, T/C (second compound 10 µM, first compound 0.000999 µM): 59.1%
- viability, T/C (second compound 10 µM, first compound 0.00316 µM): 31.2%
- viability, T/C (second compound 10 µM, first compound 0.00999 µM): 24.9%
- viability, T/C [11]: 19.7%
- viability, T/C (second compound 10 µM, first compound 0.0999 µM): 12.6%
- viability, T/C [12]: 9.24%

SMILES: COc1cc(C2c3cc4c(cc3C(OC3OC5COC(C)OC5C(O)C3O)C3COC(=O)C23)OCO4)cc(OC)c1O (stereo unspecified) + CN(C)c1ccc(Nc2c3ccc(NC(=O)CCN4CCCC4)cc3nc3cc(NC(=O)CCN4CCCC4)ccc23)cc1
- IC50 (second compound 0.0316 µM): 1.24 µM
- IC50 (second compound 0.1 µM): 1.27 µM
- IC50 (second compound 0.316 µM): 1.09 µM
- IC50 (second compound 1 µM): 0.79 µM
- IC50 (second compound 3.16 µM): 0.749 µM
- IC50 (second compound 10 µM): 0.821 µM
- viability, T/C [1]: 102%
- viability, T/C [13]: 95.6%
- viability, T/C [2]: 87.9%
- viability, T/C [14]: 55.1%
- viability, T/C [15]: 25.9%
- viability, T/C [16]: 15%
- viability, T/C [3]: 106%
- viability, T/C [17]: 98.7%
- viability, T/C [4]: 89.1%
- viability, T/C [18]: 58.8%
- viability, T/C [19]: 21.3%
- viability, T/C [20]: 15.3%
- viability, T/C [5]: 97.3%
- viability, T/C [21]: 98.7%
- viability, T/C [6]: 78.8%
- viability, T/C [22]: 51.8%
- viability, T/C [23]: 27.2%
- viability, T/C [24]: 14.3%
- viability, T/C [7]: 105%
- viability, T/C [25]: 89.1%
- viability, T/C [8]: 78%
- viability, T/C [26]: 39.4%
- viability, T/C [27]: 28.7%
- viability, T/C [28]: 15.7%
- viability, T/C [9]: 89.2%
- viability, T/C [29]: 88.7%
- viability, T/C [10]: 80.5%
- viability, T/C [30]: 38.5%
- viability, T/C [31]: 31.6%
- viability, T/C [32]: 16.3%
- viability, T/C [11]: 79.2%
- viability, T/C [33]: 71.3%
- viability, T/C [12]: 66.2%
- viability, T/C [34]: 45.5%
- viability, T/C [35]: 31.8%
- viability, T/C [36]: 20.9%

SMILES: COc1cccc2c1C(=O)c1c(O)c3c(c(O)c1C2=O)CC(O)(C(=O)CO)CC3OC1CC(N)C(O)C(C)O1 (stereo unspecified) + CN(C)c1ccc(Nc2c3ccc(NC(=O)CCN4CCCC4)cc3nc3cc(NC(=O)CCN4CCCC4)ccc23)cc1
- IC50 (second compound 0.0316 µM): 0.236 µM
- IC50 (second compound 0.1 µM): 0.242 µM
- IC50 (second compound 0.316 µM): 0.255 µM
- IC50 (second compound 1 µM): 0.253 µM
- IC50 (second compound 3.16 µM): 0.405 µM
- IC50 (second compound 10 µM): 0.41 µM
- viability, T/C [1]: 104%
- viability, T/C [13]: 72.1%
- viability, T/C [2]: 33%
- viability, T/C [14]: 33.2%
- viability, T/C [15]: 20.6%
- viability, T/C [16]: 1.74%
- viability, T/C [3]: 98.9%
- viability, T/C [17]: 71.8%
- viability, T/C [4]: 36.3%
- viability, T/C [18]: 31.1%
- viability, T/C [19]: 20.8%
- viability, T/C [20]: 2.34%
- viability, T/C [5]: 100%
- viability, T/C [21]: 69.8%
- viability, T/C [6]: 33.4%
- viability, T/C [22]: 40.5%
- viability, T/C [23]: 22.4%
- viability, T/C [24]: 2.19%
- viability, T/C [7]: 97.5%
- viability, T/C [25]: 63%
- viability, T/C [8]: 36%
- viability, T/C [26]: 42.2%
- viability, T/C [27]: 29.4%
- viability, T/C [28]: 3.18%
- viability, T/C [9]: 88.3%
- viability, T/C [29]: 72.6%
- viability, T/C [10]: 40.2%
- viability, T/C [30]: 44.2%
- viability, T/C [31]: 27.9%
- viability, T/C [32]: 2.27%
- viability, T/C [11]: 79.1%
- viability, T/C [33]: 61.1%
- viability, T/C [12]: 44.1%
- viability, T/C [34]: 47.2%
- viability, T/C [35]: 31.1%
- viability, T/C [36]: 3.01%
